Laboratory results from patent US6852673B2, “Herbicidal pyridine compounds” (BASF Aktiengesellschaft, priority 1998, dated 2005).

Columns and labels:
Assay type in all cases: in vivo
Glycine max (GLXMA) [1] = assay: Pre-emergence herbicidal evaluation, soyabeans
In short: (§1)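 Seeds are mixed into potting soil and planted; the pots are sprayed with aqueous acetone containing compound (about 0.0125 to 0.4 kg/ha equivalent); they are kept and watered in a greenhouse; each pot is rated at 2 to 4 weeks.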

Hordeum vulgare (HORVW) = assay: Pre-emergence herbicidal evaluation, winter barley
In short: as §1

Oryza sativum (ORYSA) [2] = assay: Pre-emergence herbicidal evaluation, rice
In short: as §1

[3] = system: Triticum aestivum (TRZAW); assay: Pre-emergence herbicidal evaluation, winter wheat
In short: as §1

[4] = system: Abutilon theophrasti (ABUTH); assay: Pre-emergence herbicidal evaluation, velvetleaf
In short: as §1

[5] = system: Ambrosia artemiisifolia (AMBEL); assay: Pre-emergence herbicidal evaluation, ragweed
In short: as §1

Galium aparine (GALAP) [6] = assay: Pre-emergence herbicidal evaluation, cleaver
In short: as §1

[7] = system: Ipomoea hederacea (IPOHE); assay: Pre-emergence herbicidal evaluation, morning glory
In short: as §1

Lamium purpureum (LAMPU) [8] = assay: Pre-emergence herbicidal evaluation, purple deadnettle
In short: as §1

[9] = system: Matricaria inodora (MATIN); assay: Pre-emergence herbicidal evaluation, mayweed
In short: as §1

Solanum nigrum (SOLNI) [10] = assay: Pre-emergence herbicidal evaluation, black nightshade
In short: as §1

[11] = system: Alopecurus myosuroides (ALOMY); assay: Pre-emergence herbicidal evaluation, black grass
In short: as §1

[12] = system: Echinochloa grus galli (ECHCG); assay: Pre-emergence herbicidal evaluation, barnyard grass
In short: as §1

Setaria viridis (SETVI) = assay: Pre-emergence herbicidal evaluation, green foxtail
In short: as §1

Glycine max (GLXMA) [13] = assay: Post-emergence herbicidal evaluation, soyabeans; conditions: rated 2 to 4 weeks after treatment
In short: (§2)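 Post-emergence spray; acetone stock diluted in water; dose ≈0.03–0.4 kg/ha per pot; greenhouse, routine care; visual score at 2–4 wk, 0 = untreated-like, 9 = dead.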

Oryza sativum (ORYSA) [14] = assay: Post-emergence herbicidal evaluation, rice; conditions: rated 2 to 4 weeks after treatment
In short: as §2

[15] = system: Triticum aestivum (TRZAW); assay: Post-emergence herbicidal evaluation, winter wheat; conditions: rated 2 to 4 weeks after treatment
In short: as §2

Zea mays (ZEAMX) = assay: Post-emergence herbicidal evaluation, maize; conditions: rated 2 to 4 weeks after treatment
In short: as §2

[16] = system: Abutilon theophrasti (ABUTH); assay: Post-emergence herbicidal evaluation, velvetleaf; conditions: rated 2 to 4 weeks after treatment
In short: as §2

[17] = system: Ambrosia artemiisifolia (AMBEL); assay: Post-emergence herbicidal evaluation, ragweed; conditions: rated 2 to 4 weeks after treatment
In short: as §2

Galium aparine (GALAP) [18] = assay: Post-emergence herbicidal evaluation, cleaver; conditions: rated 2 to 4 weeks after treatment
In short: as §2

[19] = system: Ipomoea hederacea (IPOHE); assay: Post-emergence herbicidal evaluation, morning glory; conditions: rated 2 to 4 weeks after treatment
In short: as §2

Lamium purpureum (LAMPU) [20] = assay: Post-emergence herbicidal evaluation, purple deadnettle; conditions: rated 2 to 4 weeks after treatment
In short: as §2

[21] = system: Matricaria inodora (MATIN); assay: Post-emergence herbicidal evaluation, mayweed; conditions: rated 2 to 4 weeks after treatment
In short: as §2

Solanum nigrum (SOLNI) [22] = assay: Post-emergence herbicidal evaluation, black nightshade; conditions: rated 2 to 4 weeks after treatment
In short: as §2

Stellaria media (STEME) = assay: Post-emergence herbicidal evaluation, chickweed; conditions: rated 2 to 4 weeks after treatment
In short: as §2

Cc1cc(OCC=C(Cl)Cl)nc(Oc2cc(C(F)(F)F)nn2C)c1 [Example 12]
7 (7 - Good herbicidal effect): ABUTH rating ([4]; dose 0.025 kg/ha) | AMBEL rating ([17]; dose 0.4 kg/ha) | GALAP rating (Galium aparine (GALAP) [18]; dose 0.03 kg/ha)
3 (3 - Moderate effect): GLXMA rating (Glycine max (GLXMA) [1]; dose 0.1 kg/ha) | HORVW rating (Hordeum vulgare (HORVW); dose 0.013 kg/ha) | ORYSA rating (Oryza sativum (ORYSA) [2]; dose 0.4 kg/ha) | TRZAW rating ([3]; dose 0.1 kg/ha) | IPOHE rating ([7]; dose 0.025 kg/ha) | ALOMY rating ([11]; dose 0.013 kg/ha) | ECHCG rating ([12]; dose 0.013 kg/ha) | ORYSA rating (Oryza sativum (ORYSA) [14]; dose 0.1 kg/ha) | TRZAW rating ([15]; dose 0.03 kg/ha) | TRZAW rating ([15]; dose 0.1 kg/ha)
4 (4 - Injury): GLXMA rating (Glycine max (GLXMA) [1]; dose 0.4 kg/ha) | HORVW rating (Hordeum vulgare (HORVW); dose 0.025 kg/ha) | GALAP rating (Galium aparine (GALAP) [6]; dose 0.025 kg/ha) | ORYSA rating (Oryza sativum (ORYSA) [14]; dose 0.4 kg/ha) | ZEAMX rating (Zea mays (ZEAMX); dose 0.1 kg/ha)
5 (5 - Definite injury): HORVW rating (Hordeum vulgare (HORVW); dose 0.1 kg/ha) | SOLNI rating (Solanum nigrum (SOLNI) [10]; dose 0.013 kg/ha) | ECHCG rating ([12]; dose 0.025 kg/ha) | SETVI rating (Setaria viridis (SETVI); dose 0.013 kg/ha) | GLXMA rating (Glycine max (GLXMA) [13]; dose 0.03 kg/ha) | TRZAW rating ([15]; dose 0.4 kg/ha) | AMBEL rating ([17]; dose 0.03 kg/ha)
1 (1 - Trace effect): GLXMA rating (Glycine max (GLXMA) [1]; dose 0.013 kg/ha) | ORYSA rating (Oryza sativum (ORYSA) [2]; dose 0.1 kg/ha) | TRZAW rating ([3]; dose 0.013 kg/ha) | GALAP rating (Galium aparine (GALAP) [6]; dose 0.013 kg/ha)
8 (8 - Approaching complete kill): HORVW rating (Hordeum vulgare (HORVW); dose 0.4 kg/ha) | ABUTH rating ([4]; dose 0.1 kg/ha) | AMBEL rating ([5]; dose 0.013 kg/ha) | AMBEL rating ([5]; dose 0.025 kg/ha) | GALAP rating (Galium aparine (GALAP) [6]; dose 0.1 kg/ha) | LAMPU rating (Lamium purpureum (LAMPU) [8]; dose 0.013 kg/ha) | MATIN rating ([9]; dose 0.013 kg/ha) | SOLNI rating (Solanum nigrum (SOLNI) [10]; dose 0.025 kg/ha) | SOLNI rating (Solanum nigrum (SOLNI) [10]; dose 0.1 kg/ha) | SOLNI rating (Solanum nigrum (SOLNI) [10]; dose 0.4 kg/ha) | ALOMY rating ([11]; dose 0.025 kg/ha) | ECHCG rating ([12]; dose 0.1 kg/ha) | GLXMA rating (Glycine max (GLXMA) [13]; dose 0.1 kg/ha) | GLXMA rating (Glycine max (GLXMA) [13]; dose 0.4 kg/ha) | ABUTH rating ([16]; dose 0.03 kg/ha) | GALAP rating (Galium aparine (GALAP) [18]; dose 0.1 kg/ha) | LAMPU rating (Lamium purpureum (LAMPU) [20]; dose 0.03 kg/ha) | LAMPU rating (Lamium purpureum (LAMPU) [20]; dose 0.1 kg/ha) | LAMPU rating (Lamium purpureum (LAMPU) [20]; dose 0.4 kg/ha) | MATIN rating ([21]; dose 0.03 kg/ha) | MATIN rating ([21]; dose 0.1 kg/ha) | MATIN rating ([21]; dose 0.4 kg/ha) | SOLNI rating (Solanum nigrum (SOLNI) [22]; dose 0.03 kg/ha) | SOLNI rating (Solanum nigrum (SOLNI) [22]; dose 0.1 kg/ha) | SOLNI rating (Solanum nigrum (SOLNI) [22]; dose 0.4 kg/ha) | STEME rating (Stellaria media (STEME); dose 0.03 kg/ha) | STEME rating (Stellaria media (STEME); dose 0.1 kg/ha) | STEME rating (Stellaria media (STEME); dose 0.4 kg/ha)
9 (9 - Complete kill): ABUTH rating ([4]; dose 0.4 kg/ha) | AMBEL rating ([5]; dose 0.1 kg/ha) | AMBEL rating ([5]; dose 0.4 kg/ha) | GALAP rating (Galium aparine (GALAP) [6]; dose 0.4 kg/ha) | IPOHE rating ([7]; dose 0.1 kg/ha) | IPOHE rating ([7]; dose 0.4 kg/ha) | LAMPU rating (Lamium purpureum (LAMPU) [8]; dose 0.025 kg/ha) | LAMPU rating (Lamium purpureum (LAMPU) [8]; dose 0.1 kg/ha) | LAMPU rating (Lamium purpureum (LAMPU) [8]; dose 0.4 kg/ha) | MATIN rating ([9]; dose 0.025 kg/ha) | MATIN rating ([9]; dose 0.1 kg/ha) | MATIN rating ([9]; dose 0.4 kg/ha) | ALOMY rating ([11]; dose 0.1 kg/ha) | ALOMY rating ([11]; dose 0.4 kg/ha) | ECHCG rating ([12]; dose 0.4 kg/ha) | SETVI rating (Setaria viridis (SETVI); dose 0.025 kg/ha) | SETVI rating (Setaria viridis (SETVI); dose 0.1 kg/ha) | SETVI rating (Setaria viridis (SETVI); dose 0.4 kg/ha) | ABUTH rating ([16]; dose 0.1 kg/ha) | ABUTH rating ([16]; dose 0.4 kg/ha) | GALAP rating (Galium aparine (GALAP) [18]; dose 0.4 kg/ha) | IPOHE rating ([19]; dose 0.03 kg/ha) | IPOHE rating ([19]; dose 0.1 kg/ha) | IPOHE rating ([19]; dose 0.4 kg/ha)
6 (6 - Herbicidal effect): TRZAW rating ([3]; dose 0.4 kg/ha) | ZEAMX rating (Zea mays (ZEAMX); dose 0.4 kg/ha) | AMBEL rating ([17]; dose 0.1 kg/ha)
0 (0 - No effect): ORYSA rating (Oryza sativum (ORYSA) [2]; dose 0.013 kg/ha) | ORYSA rating (Oryza sativum (ORYSA) [2]; dose 0.025 kg/ha)
2 (2 - Slight effect): GLXMA rating (Glycine max (GLXMA) [1]; dose 0.025 kg/ha) | TRZAW rating ([3]; dose 0.025 kg/ha) | ABUTH rating ([4]; dose 0.013 kg/ha) | IPOHE rating ([7]; dose 0.013 kg/ha) | ORYSA rating (Oryza sativum (ORYSA) [14]; dose 0.03 kg/ha) | ZEAMX rating (Zea mays (ZEAMX); dose 0.03 kg/ha)
